US20040077540A1, “Compositions and methods for modulating physiology of epithelial junctional adhesion molecules for enhanced mucosal delivery of therapeutic compounds” (Nastech Pharmaceutical Company Inc., priority 2002, published 2004)

Test system: EpiAirway™ Cell Membrane (mucosal epithelial cell layer)
Assay: Transepithelial electrical resistance (TER) assay in EpiAirway Cell Membrane
Assay type: cell-based
Conditions: for Average TER Value: permeabilizing peptide 1.0 mM on EpiAirway Cell Membrane, each group of lines has its own CONTROL; for TER % of Control: permeabilizing peptide 1.0 mM, control normalized to 100, decrease = increased permeability
Method: The EpiAirway™ system was developed by MatTek Corp (Ashland, Mass.) as a model of the pseudostratified epithelium lining the respiratory tract. The epithelial cells are grown on porous membrane-bottomed cell culture inserts at an air-liquid interface, which results in differentiation of the cells to a highly polarized morphology. The apical surface is ciliated with a microvillous ultrastructure and the epithelium produces mucus (the presence of mucin has been confirmed by immunoblotting). The inserts have a diameter of 0.875 cm, providing a surface area of 0.6 cm^2. The cells are plated onto the inserts at the factory approximately three weeks before shipping. One “kit” consists of 24 units.
A. On arrival, the units are placed onto sterile supports in 6-well microplates. Each well receives 5 mL of proprietary culture medium. This DMEM-based medium is serum free but is supplemented with epidermal growth factor and other factors. […] The 5 mL volume is just sufficient to provide contact to the bottoms of the units on their stands, but the apical surface of the epithelium is allowed to remain in direct contact with air. Sterile tweezers are used in this step and in all subsequent steps involving transfer of units to liquid-containing wells to ensure that no air is trapped between the bottoms of the units and the medium.
B. The units in their plates are maintained at 37° C. in an incubator in an atmosphere of 5% CO2 in air for 24 hours. At the end of this time the medium is replaced with fresh medium and the units are returned to the incubator for another 24 hours.
A. A “kit” of 24 EpiAirway™ units can routinely be employed for evaluating five different formulations, each of which is applied to quadruplicate wells. Each well is employed for determination of permeation kinetics (4 time points), transepithelial electrical resistance (TER), mitochondrial reductase activity as measured by MTT reduction, and cytolysis as measured by release of LDH. An additional set of wells is employed as controls, which are sham treated during determination of permeation kinetics, but are otherwise handled identically to the test sample-containing units for determinations of transepithelial resistance and viability. The determinations on the controls are routinely also made on quadruplicate units, but occasionally we have employed triplicate units for the controls and have dedicated the remaining […] units in the kit to measurements of transepithelial resistance and viability on untreated units or we have frozen and thawed the units for determinations of total LDH levels to serve as a reference for 100% cytolysis.
A. Respiratory airway epithelial cells form tight junctions in vivo as well as in vitro, and thereby restrict the flow of solutes across the tissue. These junctions confer a transepithelial resistance of several hundred ohms×cm^2 in excised airway tissues. In the MatTek EpiAirway™ units, the transepithelial electrical resistance (TER) is reported by the manufacturer to be routinely around 1000 ohms×cm^2. […] The porous membrane-bottomed units without cells, conversely, provide only minimal transmembrane resistance (approximately 5-20 ohms×cm^2).
B. Accurate determinations of TER require that the electrodes of the ohmmeter be positioned over a significant surface area above and below the membrane, and that the distance of the electrodes from the membrane be reproducibly controlled. The method for TER determination recommended by MatTek and employed for all experiments herein employs an “EVOM”™ epithelial voltohmmeter and an “ENDOHM”™ tissue resistance measurement chamber from World Precision Instruments, Inc., Sarasota, Fla.
C. The chamber is initially filled with Dulbecco's phosphate buffered saline (PBS) for at least 20 minutes prior to TER determinations in order to equilibrate the electrodes.
D. Determinations of TER are made with 1.5 mL of PBS in the chamber and 350 μL of PBS in the membrane-bottomed unit being measured. […]

Row | Sequence | Average TER Value [ohms-cm^2] | TER % of Control [%]
1 | AMYEGLWMSC [NP-38, Claudin-1 1st extracellular domain] | 291 ± 89 | 63.7
2 | ATHSTGITQC [NP-44, Claudin-2: 1st extracellular domain] | 464 ± 61 | 134.1
3 | DRGYGTSLL [NP-3, Occludin: 1st extracellular domain] | 766 ± 94 | 145.4
4 | FIGSNIITSQ [NP-37, Claudin-3: 1st extracellular domain] | 304 ± 41 | 66.5
5 | FIGSNIVTSQ [NP-35, Claudin-4: 1st extracellular domain] | 298 ± 56 | 65.2
6 | FLDHNIVTAQ [NP-20, Claudin-5: 1st extracellular domain] | 341 ± 31 | 92.2
7 | GEVKVKLIV [NP-9, JAM-1 extracellular domain] | 342 ± 185 | 92.4
8 | GGSVGYPYG [NP-39, Occludin: 1st extracellular domain] | 442 ± 185 | 127.7
9 | GSGFGSYGS [NP-5, Occludin: 1st extracellular domain] | 520 ± 134 | 98.7
10 | GYGYGYGYG [NP-4, Occludin: 1st extracellular domain] | 500 ± 42 | 94.9
11 | IVVREFYDPS [NP-14, Claudin-5: 2nd extracellular domain] | 286 ± 56 | 92.9
12 | KFDQGDTTR [NP-6, JAM-1 extracellular domain] | 793 ± 44 | 150.5
13 | KVFDSLLNLS [NP-2, Claudin-1: 1st extracellular domain] | 709 ± 28 | 134.5
14 | KVYDSLLALP [NP-7, Claudin-3: 1st extracellular domain] | 811 ± 87 | 153.9
15 | KVYDSVLALS [NP-43, Claudin-5: 1st extracellular domain] | 446 ± 85 | 128.9
16 | LVCYNNKIT [NP-13, JAM-1 extracellular domain] | 288 ± 51 | 93.5
17 | NIWEGLWMNC [NP-34, Claudin-3: 1st extracellular domain] | 297 ± 40 | 65.0
18 | NRIVQEFYDP [NP-11, Claudin-1: 2nd extracellular domain] | 292 ± 20 | 94.8
19 | SVTVHSSEP [NP-1, JAM-1 extracellular domain] | 606 ± 130 | 115.0
20 | TIWEGLWMNC [NP-40, Claudin-4: 1st extracellular domain] | 457 ± 146 | 100.0
21 | TTWLGLWMSC [NP-45, Claudin-1: 1st extracellular domain] | 456 ± 162 | 131.8
22 | VSEEGGNSY [NP-12, JAM-1 extracellular domain] | 279 ± 27 | 90.6
23 | VSQSTGQIQC [NP-18, Claudin-1: 1st extracellular domain] | 439 ± 145 | 118.6
24 | VVQSTGHMQC [NP-16, Claudin-5: 1st extracellular domain] | 386 ± 44 | 104.3
25 | VVQSTGQMQC [NP-36, Claudin-3: 1st extracellular domain] | 306 ± 58 | 67.0
26 | YGYGGYTDP [NP-15, Occludin: 1st extracellular domain] | 383 ± 79 | 103.5
27 | YVGASIVTAV [NP-19, Claudin-2: 1st extracellular domain] | 374 ± 57 | 101.1
